Structures can show the parent of a compound that is named as a salt. Where two headings read alike, the source gives them in different places.
Tests used:
FLT3 = biological target: T1, FLT3 (Homo sapiens, UniProt P36888); assay: Binding constant (Kd) measurement, phage-displayed kinase competition binding assay, FLT3
T1 construct: made in house
T1 sequence (P36888 27-993): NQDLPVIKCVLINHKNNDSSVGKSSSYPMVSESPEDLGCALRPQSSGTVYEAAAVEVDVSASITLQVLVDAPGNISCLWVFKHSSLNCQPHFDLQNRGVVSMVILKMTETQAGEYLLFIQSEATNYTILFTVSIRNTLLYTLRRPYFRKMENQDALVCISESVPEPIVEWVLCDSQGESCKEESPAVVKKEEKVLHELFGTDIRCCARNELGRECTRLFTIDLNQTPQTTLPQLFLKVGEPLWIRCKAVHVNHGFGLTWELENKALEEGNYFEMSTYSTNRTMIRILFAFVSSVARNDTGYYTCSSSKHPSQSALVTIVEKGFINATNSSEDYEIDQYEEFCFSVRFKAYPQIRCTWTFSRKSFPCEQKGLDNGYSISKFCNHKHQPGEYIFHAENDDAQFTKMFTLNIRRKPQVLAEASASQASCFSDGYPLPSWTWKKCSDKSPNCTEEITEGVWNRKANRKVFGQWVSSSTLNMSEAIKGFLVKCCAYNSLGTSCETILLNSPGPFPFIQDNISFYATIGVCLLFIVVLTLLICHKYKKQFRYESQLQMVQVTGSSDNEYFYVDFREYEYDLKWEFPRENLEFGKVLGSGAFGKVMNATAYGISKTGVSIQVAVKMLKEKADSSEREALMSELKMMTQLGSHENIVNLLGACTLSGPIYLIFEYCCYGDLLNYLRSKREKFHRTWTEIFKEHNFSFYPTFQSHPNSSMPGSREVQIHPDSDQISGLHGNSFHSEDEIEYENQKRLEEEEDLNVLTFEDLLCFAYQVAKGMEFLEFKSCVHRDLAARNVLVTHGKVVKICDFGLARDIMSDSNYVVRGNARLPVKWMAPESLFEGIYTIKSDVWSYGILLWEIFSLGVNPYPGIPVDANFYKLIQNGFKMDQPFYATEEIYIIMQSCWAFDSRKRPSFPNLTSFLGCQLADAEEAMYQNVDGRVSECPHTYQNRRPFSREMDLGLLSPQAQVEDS
Method: (§1) Binding Constant (Kd) Measurements for Small-Molecule-Kinase Interactions
(§2) By testing across a large class of protein kinases, specificity of the kinase inhibitors provided herein is also determined. The components of the assays include various human kinases expressed as fusions to T7 bacteriophage particles and immobilized ligands that bind to the ATP site of the kinases. […] If the test compound binds the kinase, it competes with the immobilized ligand and prevents binding to the solid support. […] The results are read out by quantitating the amount of fusion protein bound to the solid support, which is accomplished by either traditional phage plaque assays or by quantitative PCR (qPCR) using the phage genome as a template.

MV4-11 cells = assay: Cellular proliferation assay (MTS), MV4-11; assay type: cell-based; settings: Homo sapiens
Source text: Cellular Proliferation Assay
Cancer cell viability and proliferation can be evaluated using a tetrazolium salt reduction cell-based assay. In viable cells, this colorimetric assay can measure mitochondrial reduction of a tetrazolium component (MTS) into an […] formazan product.
This cell line was used to determine the ability of the compounds provided herein to inhibit Flt3 in intact cells. The RS4-11 cell line, which expresses the wild-type (WT) receptor, is also used as a control to verify the test compound's ability to inhibit the FLT3 receptor containing the ITD mutation.
MV4-11 cells were plated at 10,000 cells per well in DMEM medium with 0.5% serum. RS4-11 cells were plated at 20,000 cells per well in RPMI with 0.5% serum. […] An aliquot from each well of the compound plate was transferred to the plated cells and then incubated @ 37° C. in 5% CO2 (for 3 days for the MV4-11 cells, 2 days for the RS4-11 cells).
MTS tetrazolium compound (Owen's reagent) was thawed in a H2O bath. 20 μl of MTS tetrazolium was added to each well of optical plate and the cells were incubated @ 37° C. in 5% CO2 for 2 hours.

KIT = biological target: T2, KIT (Homo sapiens, UniProt P10721); assay: Binding constant (Kd) measurement, phage-displayed kinase competition binding assay, KIT
T2 construct: made in house
Method: as §1, §2

CSF1R = biological target: T3, CSF1R (Homo sapiens, UniProt P07333); assay: Binding constant (Kd) measurement, phage-displayed kinase competition binding assay, CSF1R
T3 construct: made in house
Method: as §1, §2

[1] = read-out: Binding Assay FLT3 Kd
[2] = MV4-11 cells, 72 hour incubation, MTS, read-out: Cellular Assay MV-proliferation IC50
[3] = MV4-11, 72 h, read-out: Cellular Assay MV-proliferation IC50 (nM)

T2 sequence (P10721 26-976): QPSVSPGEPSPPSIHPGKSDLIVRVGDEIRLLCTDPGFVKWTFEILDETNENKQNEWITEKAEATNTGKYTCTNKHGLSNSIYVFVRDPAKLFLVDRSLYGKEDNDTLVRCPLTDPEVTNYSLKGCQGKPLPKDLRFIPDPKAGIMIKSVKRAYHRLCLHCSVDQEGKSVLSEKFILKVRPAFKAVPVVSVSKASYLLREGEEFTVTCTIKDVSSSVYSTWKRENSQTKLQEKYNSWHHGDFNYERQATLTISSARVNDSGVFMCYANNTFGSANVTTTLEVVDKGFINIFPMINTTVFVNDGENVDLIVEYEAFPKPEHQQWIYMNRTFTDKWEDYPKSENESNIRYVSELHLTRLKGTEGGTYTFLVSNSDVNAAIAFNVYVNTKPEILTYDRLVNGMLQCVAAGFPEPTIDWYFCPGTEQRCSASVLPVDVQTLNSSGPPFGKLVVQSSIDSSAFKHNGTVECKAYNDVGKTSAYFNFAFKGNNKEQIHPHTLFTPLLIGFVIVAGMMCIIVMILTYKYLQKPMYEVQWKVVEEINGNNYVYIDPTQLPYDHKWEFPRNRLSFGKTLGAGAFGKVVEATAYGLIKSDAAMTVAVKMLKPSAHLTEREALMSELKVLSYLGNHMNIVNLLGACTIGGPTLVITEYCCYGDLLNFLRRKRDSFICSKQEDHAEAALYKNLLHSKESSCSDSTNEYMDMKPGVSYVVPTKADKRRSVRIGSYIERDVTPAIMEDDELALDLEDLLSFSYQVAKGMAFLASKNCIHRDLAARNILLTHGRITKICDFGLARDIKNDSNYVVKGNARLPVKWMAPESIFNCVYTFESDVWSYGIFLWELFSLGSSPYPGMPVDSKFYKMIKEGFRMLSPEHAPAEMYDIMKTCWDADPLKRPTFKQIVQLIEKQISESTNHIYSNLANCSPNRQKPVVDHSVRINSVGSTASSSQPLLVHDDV
T3 sequence (P07333 20-972): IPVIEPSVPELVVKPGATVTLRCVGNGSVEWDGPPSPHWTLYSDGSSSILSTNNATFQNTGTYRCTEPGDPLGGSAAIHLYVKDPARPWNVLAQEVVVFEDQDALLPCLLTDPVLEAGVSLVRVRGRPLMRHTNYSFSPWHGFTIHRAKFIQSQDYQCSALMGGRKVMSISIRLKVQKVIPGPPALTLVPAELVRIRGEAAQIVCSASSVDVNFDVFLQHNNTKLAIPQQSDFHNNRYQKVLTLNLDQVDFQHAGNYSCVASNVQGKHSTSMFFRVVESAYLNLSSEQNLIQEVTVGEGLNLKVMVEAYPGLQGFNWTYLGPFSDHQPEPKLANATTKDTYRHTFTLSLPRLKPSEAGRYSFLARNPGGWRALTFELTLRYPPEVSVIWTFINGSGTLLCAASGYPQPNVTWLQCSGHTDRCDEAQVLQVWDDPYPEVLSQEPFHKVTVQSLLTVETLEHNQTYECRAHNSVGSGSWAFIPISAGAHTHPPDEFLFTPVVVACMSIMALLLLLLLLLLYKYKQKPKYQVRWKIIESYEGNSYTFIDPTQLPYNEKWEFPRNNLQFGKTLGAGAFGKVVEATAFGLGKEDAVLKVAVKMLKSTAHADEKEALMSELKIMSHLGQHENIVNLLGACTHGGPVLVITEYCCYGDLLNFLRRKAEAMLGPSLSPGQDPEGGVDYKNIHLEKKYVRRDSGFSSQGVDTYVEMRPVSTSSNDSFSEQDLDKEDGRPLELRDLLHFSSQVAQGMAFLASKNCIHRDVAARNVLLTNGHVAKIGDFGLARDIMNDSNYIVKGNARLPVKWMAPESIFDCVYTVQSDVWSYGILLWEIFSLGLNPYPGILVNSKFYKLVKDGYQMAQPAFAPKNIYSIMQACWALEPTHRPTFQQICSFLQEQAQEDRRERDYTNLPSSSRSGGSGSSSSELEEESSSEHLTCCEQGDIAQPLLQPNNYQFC

SMILES | Kd (FLT3; [1]) [nM] | IC50 (MV4-11 cells; [2]) [nM] | Kd (FLT3) [nM] | IC50 (MV4-11 cells; [3]) [nM] | Kd (KIT) [nM] | Kd (CSF1R) [nM]
CC(C)(C)c1cc(NC(=O)Nc2ccc(-c3cn4c(n3)sc3ccccc34)cc2)no1 [Compound A1] | < 10 | < 10 |  |  |  | 
CC(C)(C)c1cc(NC(=O)Nc2ccc(-c3cn4c(n3)sc3cc(F)ccc34)cc2)no1 [Compound A2, 1-(5-tert-butyl-isoxazol-3-yl)-3-[4-(7-fluoro-benzo[d]imidazo[2,1-b]thiazol-2-yl)-phenyl]-urea] |  | < 10 | 10 to 100 |  |  | 
Cc1ccc2c(c1)sc1nc(-c3ccc(NC(=O)Nc4cc(C(C)(C)C)on4)cc3)cn12 [Compound A3, 1-(5-tert-butyl-isoxazol-3-yl)-3-[4-(7-methyl-benzo[d]imidazo[2,1-b]thiazol-2-yl)-phenyl]-urea] |  | < 10 | < 10 |  |  | 
CC(C)(C)c1cc(NC(=O)Nc2ccc(-c3cn4c(n3)sc3cc(O)ccc34)cc2)no1 [Compound A4, 1-(5-tert-butyl-isoxazol-3-yl)-3-[4-(7-hydroxy-benzo[d]imidazo[2,1-b]thiazol-2-yl)-phenyl]-urea] | < 10 | < 10 |  |  |  | 
COc1ccc2c(c1)sc1nc(-c3ccc(NC(=O)Nc4cc(C(C)(C)C)on4)cc3)cn12 [Compound A5, 1-(5-tert-butyl-isoxazol-3-yl)-3-[4-(7-methoxy-benzo[d]imidazo[2,1-b]thiazol-2-yl)-phenyl]-urea] |  | < 10 | < 10 |  |  | 
CC(C)(C)c1cc(NC(=O)Nc2ccc(-c3cn4c(n3)sc3cc(N5CCOCC5)ccc34)cc2)no1 [Compound A6, 1-(5-tert-Butyl-isoxazol-3-yl)-3-[4-(7-morpholin-4-yl-benzo[d]imidazo[2,1-b]thiazol-2-yl)-phenyl]-urea] |  | < 10 | < 10 |  |  | 
CN1CCN(c2ccc3c(c2)sc2nc(-c4ccc(NC(=O)Nc5cc(C(C)(C)C)on5)cc4)cn23)CC1 [Compound A7, 1-(5-tert-butyl-isoxazol-3-yl)-3-{4-[7-(4-methyl-piperazin-1-yl)-benzo[d]imidazo[2,1-b]thiazol-2-yl]-phenyl}-urea] | < 10 | < 10 |  |  |  | 
CC(C)(C)c1cc(NC(=O)Nc2ccc(-c3cn4c(n3)sc3cc(OCCN5CCOCC5)ccc34)cc2)no1 [Compound B1, N-(5-tert-Butyl-isoxazol-3-yl)-N′-{4-[7-(2-morpholin-4-yl-ethoxy)imidazo[2,1-b][1,3]benzothiazol-2-yl]phenyl}urea] |  |  |  | < 10 |  | 
CCN(CC)CCOc1ccc2c(c1)sc1nc(-c3ccc(NC(=O)Nc4cc(C(C)(C)C)on4)cc3)cn12 [Compound B2, 1-(5-tert-Butyl-isoxazol-3-yl)-3-{4-[7-(2-diethylamino-ethoxy)-benzo[d]imidazo[2,1-b]thiazol-2-yl]-phenyl}-urea] |  | < 10 | < 10 |  | < 10 | 
CC(C)(C)c1cc(NC(=O)Nc2ccc(-c3cn4c(n3)sc3cc(OCCN5CCCCC5)ccc34)cc2)no1 [Compound B3, 1-(5-tert-Butyl-isoxazol-3-yl)-3-{4-[7-(2-piperidin-1-yl-ethoxy)-benzo[d]imidazo[2,1-b]thiazol-2-yl]-pheny}-urea hydrochloride] | < 10 | < 10 |  |  | < 10 | 
CN1CCN(CCOc2ccc3c(c2)sc2nc(-c4ccc(NC(=O)Nc5cc(C(C)(C)C)on5)cc4)cn23)CC1 [Compound B4, 1-(5-tert-Butyl-isoxazol-3-yl)-3-(4-{7-[2-(4-methyl-piperazin-1-yl)-ethoxy]-benzo[d]imidazo[2,1-b]thiazol-2-yl}-phenyl)-urea hydrochloride] | < 10 | < 10 |  |  | < 10 | 
CC(C)(C)c1cc(NC(=O)Nc2ccc(-c3cn4c(n3)sc3cc(OC(=O)[C@@H]5CCCN5)ccc34)cc2)no1 [Compound B6, (2S)-pyrrolidine-2-carboxylic acid 2-{4-[3-(5-tert-butyl-isoxazol-3-yl)-ureido]-phenyl}-benzo[d]imidazo[2,1-b]thiazol-7-yl ester] |  | < 10 | < 10 |  | 10 to 100 | 
CN1CCN(CCCOc2ccc3c(c2)sc2nc(-c4ccc(NC(=O)Nc5cc(C(C)(C)C)on5)cc4)cn23)CC1 [Compound B9, 1-(5-tert-Butyl-isoxazol-3-yl)-3-(4-{7-[3-(4-methyl-piperazin-1-yl)-propoxy]-benzo[d]imidazo[2,1-b]thiazol-2-yl}-phenyl)-urea] | < 10 | < 10 |  |  | 10 to 100 | 
CCOC(=O)Cc1ccc2c(c1)sc1nc(-c3ccc(NC(=O)Nc4cc(C(C)(C)C)on4)cc3)cn12 [Compound C1, Ethyl 2-{2-[4-({[(5-tert-Butylisoxazol-3-yl)amino]carbonyl}amino)phenyl]imidazo[2,1-b][1,3]benzothiazol-7-yl}acetate] |  | < 10 | < 10 |  | < 10 | 
CC(C)(C)c1cc(NC(=O)Nc2ccc(-c3cn4c(n3)sc3cc(CC(=O)O)ccc34)cc2)no1 [Compound C2, 2-{2-[4-({[(5-tert-Butylisoxazol-3-yl)amino]carbonyl}amino)phenyl]imidazo[2,1-b][1,3]benzothiazol-7-yl}acetic acid] |  | < 10 | < 10 |  | < 10 | 
CC(C)(C)c1cc(NC(=O)Nc2ccc(-c3cn4c(n3)sc3cc(CC(=O)NCCN5CCCC5)ccc34)cc2)no1 [Compound C15, 2-(2-{4-[3-(5-tert-butyl-isoxazol-3-yl)-ureido]-phenyl}-benzo[d]imidazo[2,1-b]thiazol-7-yl)-N-(2-pyrrolidin-1-yl-ethyl)-acetamide hydrochloride] |  | < 10 |  |  | < 10 | 10 to 100
CCN(CC)CCNC(=O)Cc1ccc2c(c1)sc1nc(-c3ccc(NC(=O)Nc4cc(C(C)(C)C)on4)cc3)cn12 [Compound C16, 2-(2-{4-[3-(5-tert-butyl-isoxazol-3-yl)-ureido]-phenyl}-benzo[d]imidazo[2,1-b]thiazol-7-yl)-N-(2-diethylamino-ethyl)-acetamide hydrochloride] |  | < 10 |  |  | < 10 | 10 to 100
CCN1CCN(C(=O)Cc2ccc3c(c2)sc2nc(-c4ccc(NC(=O)Nc5cc(C(C)(C)C)on5)cc4)cn23)CC1 [Compound C17, 1-(5-tert-butyl-isoxazol-3-yl)-3-(4-{7-[2-(4-ethyl-piperazin-1-yl)-2-oxo-ethyl]benzo[d]imidazo[2,1-b]thiazol-2-yl}-phenyl)-urea hydrochloride] |  |  |  | < 10 | < 10 | 10 to 100
CC(C)(C)c1cc(NC(=O)Nc2ccc(-c3cn4c(n3)sc3cc(C(=O)NCCN5CCOCC5)ccc34)cc2)no1 [Compound C19, 2-{4-[3-(5-tert-butyl-isoxazol-3-yl)-ureido]-phenyl}imidazo[2,1-b][1,3]benzothiazole-7-carboxylic acid (2-morpholin-4-yl-ethyl)-amide hydrochloride] |  | < 10 |  |  | < 10 | 10 to 100
CCN1CCN(CCCc2ccc3c(c2)sc2nc(-c4ccc(NC(=O)Nc5cc(C(C)(C)C)on5)cc4)cn23)CC1 [Compound D1, N-(5-tert-Butyl-isoxazol-3-yl)-N′-(4-{7-[3-(4-ethyl-piperazin-1-yl)propyl]imidazo[2,1-b][1,3]benzothiazol-2-yl}phenyl)urea hydrochloride] |  | < 10 |  |  | < 10 | 

Source: patent publication US8921546B2, “Imidazolothiazole compounds for the treatment of disease” (Ambit Biosciences Corporation, priority 2006, dated 2014)
